tested on: Clonic Seizures Caused by Pentylenetetrazole in Rats; experiment: Protection against clonic seizures caused by pentylenetetrazole in rats; type: in vivo; settings: Rattus norvegicus; dose 25.0 mg/kg, oral or i.p.; pentylenetetrazole 23 mg/kg i.v. at 30 or 60 min; read-out: % of Rats Protected
Method: The anti-anxiety and anticonvulsant properties of the novel compounds of the present invention have been established in a test which indicates anxiolytic and antiepileptic activity by the measure of protection from convulsions resulting from the administration of pentylenetetrazole. Single or graded dose levels of the test compounds were administered orally or intraperitoneally in a 2% starch vehicle, containing 0.5% v/v polyethylene glycol and one drop of Polysorbate 80 to groups of at least 4 rats. At 30 or 60 minutes, the rats were treated intravenously with pentylenetetrazole at a dose of 23 mg/kg of body weight. This dose is estimated to cause clonic seizures in 99% of unprotected rats. It has been reported [R. T. Hill and D. H. Tedeschi, "Animal Testing and Screening Procedures in Evaluating Psychotropic Drugs" in "An Introduction to Psychopharmacology", Eds. R. R. Rech and K. E. Moore, Raven Press, New York, pp 237-288 (1971)] that there is a high degree of correlation between antagonism of pentylenetetrazole seizures in rats and anti-anxietyor anticonvulsant effects in higher warm-blooded animals.

Structure (SMILES)	responders at 25 mg/kg [%]
COc1cc(C(=O)c2cnn3c(-c4ccncc4)ccnc23)cc(OC)c1OC [[7-(4-pyridinyl)pyrazolo[1,5-a]pyrimidin-3-yl](3,4,5-trimethoxyphenyl)methanone]	25
O=C(c1ccsc1)c1cnn2c(-c3ccncc3)ccnc12 [[7-(4-pyridinyl)pyrazolo[1,5-a]pyrimidin-3-yl]-3-thienylmethanone]	50
CSc1ccc(-c2ccnc3c(C(=O)c4ccccc4)cnn23)cc1 [[7-[4-(methylthio)phenyl]pyrazolo[1,5-a]pyrimidin-3-yl]phenylmethanone]	50

tested on: Brain-Specific Receptors of Rats; experiment: Inhibition of the binding of 3H-benzodiazepine to brain-specific receptors of rats; parameters: species or system rat (Wistar); settings: 3H-diazepam 1.5 nM or 3H-flunitrazepam 1.0 nM; rat cortex P2 fraction; test concentration not given

Structure (SMILES)	% Inhibition [%]
O=C(c1ccco1)c1cnn2c(-c3ccccc3)ccnc12 [2-Furanyl(7-phenylpyrazolo[1,5-a]pyrimidin-3-yl)methanone]	81
O=C(c1ccccn1)c1cnn2c(-c3ccccn3)ccnc12 [2-pyridinyl[7-(2-pyridinyl)pyrazolo[1,5-a]pyrimidin-3-yl]methanone]	77
O=C(c1ccccn1)c1cnn2c(-c3cccs3)ccnc12 [2-pyridinyl[7-(2-thienyl)pyrazolo[1,5-a]pyrimidin-3-yl]methanone]	24
N#Cc1ccc(-c2ccnc3c(C(=O)c4ccccc4)cnn23)cc1 [4-(3-benzoylpyrazolo[1,5-a]pyrimidin-7-yl)benzonitrile]	10
Cc1nn2c(-c3cccc(C(F)(F)F)c3)ccnc2c1C(=O)c1ccccc1 [(2-methyl-7-[3-(trifluoromethyl)phenyl]pyrazolo[1,5-a]pyrimidin-3-yl)phenyl-methanone]	54
COc1cc(OC)cc(C(=O)c2cnn3c(-c4cccnc4)ccnc23)c1 [(3,5-dimethoxyphenyl)[7-(3-pyridinyl)pyrazolo[1,5-a]pyrimidin-3-yl]methanone]	30
O=C(c1cccc(F)c1)c1cnn2c(-c3ccc(F)cc3)ccnc12 [(3-fluorophenyl)[7-(4-fluorophenyl)pyrazolo[1,5-a]pyrimidin-3-yl]methanone]	52
O=C(c1cccc(F)c1)c1cnn2c(-c3cccc(C(F)(F)F)c3)ccnc12 [(3-fluorophenyl)[7-[3-(trifluoromethyl)phenyl]pyrazolo[1,5-a]pyrimidin-3-yl]methanone]	96
O=C(c1ccc(F)cc1)c1cnn2c(-c3cc[n+]([O-])cc3)ccnc12 [(4-Fluorophenyl)[7-(4-pyridinyl)pyrazolo[1,5-a]pyrimidin-3-yl]methanone, pyridine-1-oxide]	15
O=C(c1ccc(Cl)cc1)c1cnn2c(-c3cccnc3)ccnc12 [(4-chlorophenyl)[7-(3-pyridinyl)pyrazolo[1,5-a]pyrimidin-3-yl]methanone]	87
O=C(c1ccc(Cl)cc1)c1cnn2c(-c3ccc(F)cc3)ccnc12 [(4-chlorophenyl)[7-(4-fluorophenyl)pyrazolo[1,5-a]pyrimidin-3-yl]methanone]	16
O=C(c1ccc(F)cc1)c1cnn2c(-c3ccccc3)ccnc12 [(4-fluorophenyl)(7-phenylpyrazolo[1,5-a]pyrimidin-3-yl)methanone]	42
Cc1cc(-c2cccnc2)n2ncc(C(=O)c3ccc(F)cc3)c2n1 [(4-fluorophenyl)[5-methyl-7-(3-pyridinyl)pyrazolo[1,5-a]pyrimidin-3-yl]methanone]	25
Cc1ccc(C(=O)c2cnn3c(-c4ccccn4)ccnc23)cc1 [(4-methylphenyl)[7-(2-pyridinyl)pyrazolo[1,5-a]pyrimidin-3-yl]methanone]	13
Cc1ccc(C(=O)c2cnn3c(-c4ccsc4)ccnc23)cc1 [(4-methylphenyl)[7-(3-thienyl)pyrazolo[1,5-a]pyrimidin-3-yl]methanone]	58
O=C(c1cccc(C(F)(F)F)c1)c1cnn2c(-c3ccccc3)ccnc12 [(7-phenylpyrazolo[1,5-a]pyrimidin-3-yl)[3-(trifluoromethyl)phenyl]methanone]	19
CC(=O)Nc1cccc(-c2ccnc3c(C(=O)c4ccccc4)cnn23)c1 [N--[3-(3-benzoylpyrazolo[1,5-a]pyrimidin-7-yl)phenyl]acetamide]	65
CC(=O)Nc1ccc(-c2ccnc3c(C(=O)c4ccccc4)cnn23)cc1 [N-[4-(3-Benzoylpyrazolo[1,5-a]pyrimidin-7-yl)phenyl]acetamide]	33
O=C(c1ccccc1)c1cnn2c(-c3ccccc3)ccnc12 [Phenyl(7-phenylpyrazolo[1,5-a]pyrimidin-3-yl)methanone]	55
O=C(c1cccc(C(F)(F)F)c1)c1cnn2c(-c3cccc(C(F)(F)F)c3)ccnc12 [[3-(trifluoromethyl)phenyl][7-[3-(trifluoromethyl)phenyl]pyrazolo[1,5-a]pyrimidin-3-yl]methanone]	56
Cc1cc(-c2cccnc2)n2ncc(C(=O)c3ccccc3)c2n1 [[5-Methyl-7-(3-pyridinyl)pyrazolo[1,5-a]pyrimidin-3-yl]phenyl-methanone]	15
Cc1cc(-c2ccncc2)n2ncc(C(=O)c3ccccc3)c2n1 [[5-Methyl-7-(4-pyridinyl)pyrazolo[1,5-a]pyrimidin-3-yl]phenyl-methanone]	93
Cc1cc(-c2cccc(C(F)(F)F)c2)n2ncc(C(=O)c3ccccc3)c2n1 [[5-Methyl-7-[3-(trifluoromethyl)phenyl]pyrazolo[1,5-a]pyrimidin-3-yl]phenyl-methanone]	27
O=C(c1ccccc1)c1cnn2c(-c3cc(Cl)ccc3Cl)ccnc12 [[7-(2,5-dichlorophenyl)pyrazolo[1,5-a]pyrimidin-3-yl]phenyl-methanone]	21
O=C(c1ccco1)c1cnn2c(-c3ccccc3F)ccnc12 [[7-(2-fluorophenyl)pyrazolo[1,5-a]pyrimidin-3-yl]-2-furanyl-methanone]	34
O=C(c1cccc(C(F)(F)F)c1)c1cnn2c(-c3ccco3)ccnc12 [[7-(2-furanyl)pyrazolo[1,5-a]pyrimidin-3-yl][3-(trifluoromethyl)phenyl]methanone]	36
O=C(c1ccccc1)c1cnn2c(-c3cccc(Cl)c3)ccnc12 [[7-(3-chlorophenyl)pyrazolo[1,5-a]pyrimidin-3-yl]phenyl-methanone]	95
O=C(c1ccccc1)c1cnn2c(-c3cccc(F)c3)ccnc12 [[7-(3-fluorophenyl)pyrazolo[1,5-a]pyrimidin-3-yl]phenyl-methanone]	88
O=C(c1cccs1)c1cnn2c(-c3ccncc3)ccnc12 [[7-(4-pyridinyl)pyrazolo[1,5-a]pyrimidin-3-yl]-2-thienyl-methanone]	62
O=C(c1cccc(C(F)(F)F)c1)c1cnn2c(-c3ccncc3)ccnc12 [[7-(4-pyridinyl)pyrazolo[1,5-a]pyrimidin-3-yl][3-(trifluoromethyl)phenyl]methanone]	99
